The numbers were not newly measured in US12396965B2, “Putrescine topical barrier formulation” (VIVIER CANADA INC., priority 2017, dated 2025), which cites them from elsewhere.

For data set [1], the system named is epidermis of eroded skin. The following applies: animals and human, topical.
For data set [2], the target named is fibroblast tissue transglutaminase (Homo sapiens, UniProt P21980). Particulars: in vitro and in vivo; topical; compared to controls.
Sequence of fibroblast tissue transglutaminase (P21980 whole entry): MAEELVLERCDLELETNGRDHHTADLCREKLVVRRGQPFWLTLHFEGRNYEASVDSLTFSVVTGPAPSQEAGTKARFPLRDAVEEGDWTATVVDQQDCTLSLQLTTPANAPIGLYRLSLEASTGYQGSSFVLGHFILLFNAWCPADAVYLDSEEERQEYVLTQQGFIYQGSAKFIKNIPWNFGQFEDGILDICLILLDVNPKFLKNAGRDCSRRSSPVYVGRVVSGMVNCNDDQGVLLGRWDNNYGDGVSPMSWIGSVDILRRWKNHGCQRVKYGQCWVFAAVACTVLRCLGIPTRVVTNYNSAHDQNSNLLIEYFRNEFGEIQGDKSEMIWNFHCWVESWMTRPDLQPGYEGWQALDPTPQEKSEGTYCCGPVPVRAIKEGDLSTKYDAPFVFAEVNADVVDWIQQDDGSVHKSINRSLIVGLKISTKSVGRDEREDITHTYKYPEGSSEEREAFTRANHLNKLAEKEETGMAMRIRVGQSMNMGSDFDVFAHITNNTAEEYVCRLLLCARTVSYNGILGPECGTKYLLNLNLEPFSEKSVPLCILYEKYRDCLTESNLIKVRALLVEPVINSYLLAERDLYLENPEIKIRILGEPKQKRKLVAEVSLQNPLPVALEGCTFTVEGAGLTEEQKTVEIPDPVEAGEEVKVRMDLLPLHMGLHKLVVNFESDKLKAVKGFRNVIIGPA

Take `NCCCCN` [Putrescine, 1,4-diaminobutane]: the “barrier function of the epidermis and thickness of the stratum lucidum / inner strata of human epidermis” value in data set [1] is on record as “increasing its barrier function as well as the thickness of the stratum lucidum”. For the same molecule, the collagen cross-linking entry in data set [2] is recorded as “reduce collagen cross-linking”.
